# Measurements reported in ChEMBL document CHEMBL3885861, “Open TG-GATES”.
# Species on record: Rattus norvegicus
# Experiment: Open TG-GATES - Regimen: Daily Repeat
# Assay type: toxicity, organism-based, Sprague-Dawley
# Parameters: regimen Daily Repeat, gender Male, age 6 weeks
# Conditions: in vivo, po, 100 mg/kg, route gavage, dose level Low; for APTT / Bas / Eos / Fbg / Hb / Ht / Lym / MCH / MCHC / MCV / Mono / Neu / PT / Plat / RBC / Ret / WBC: tissue Blood; for KIDNEY_L / KIDNEY_R / KIDNEY_TOTAL: tissue Kidney; for LIVER: tissue Liver; for A/G / ALP / ALT / AST / BUN / CRE / Ca / Cl / DBIL / GLC / IP / K / LDH / Na / PL / RALB / TBIL / TC / TG / TP / gamma-GTP: tissue Plasma
smiles,measurement,setting,value
CCOC(=O)CCC(=O)O[C@H]1[C@H](O[C@@H]2[C@@H](C)[C@H](O[C@H]3C[C@@](C)(OC)[C@@H](O)[C@H](C)O3)[C@@H](C)C(=O)O[C@H](CC)[C@@](C)(O)[C@H](O)[C@@H](C)C(=O)[C@H](C)C[C@@]2(C)O)O[C@H](C)C[C@@H]1N(C)C [ERYTHROMYCIN ETHYLSUCCINATE],TERMINAL_BW,"72 h, time 3 day",235.5 g
same,APTT,"72 h, time 3 day",21.4 s
same,Bas,"72 h, time 3 day",0%
same,Eos,"72 h, time 3 day",1%
same,Fbg,"72 h, time 3 day",324.6 mg/dL
same,Hb,"72 h, time 3 day",13.4 g/dL
same,Ht,"72 h, time 3 day",39.4%
same,Lym,"72 h, time 3 day",83.4%
same,MCH,"72 h, time 3 day",20.7 pg
same,MCHC,"72 h, time 3 day",33.9%
same,MCV,"72 h, time 3 day",61.1 fL
same,Mono,"72 h, time 3 day",3%
same,Neu,"72 h, time 3 day",11.6%
same,PT,"72 h, time 3 day",15.9 s
same,Plat,"72 h, time 3 day",120.2 x10_4/uL
same,RBC,"72 h, time 3 day",645.4 x10_4/ul
same,Ret,"72 h, time 3 day",4.9%
same,WBC,"72 h, time 3 day",101.8 x10_2/uL
same,KIDNEY_L,"72 h, time 3 day",1 g
same,KIDNEY_R,"72 h, time 3 day",1 g
same,KIDNEY_TOTAL,"72 h, time 3 day",2 g
same,LIVER,"72 h, time 3 day",10.5 g
same,A/G,"72 h, time 3 day",1.2
same,ALP,"72 h, time 3 day",1729.8 IU/L
same,ALT,"72 h, time 3 day",44.4 IU/L
same,AST,"72 h, time 3 day",77.2 IU/L
same,BUN,"72 h, time 3 day",18 mg/dL
same,CRE,"72 h, time 3 day",0.1 mg/dL
same,Ca,"72 h, time 3 day",10.3 mg/dL
same,Cl,"72 h, time 3 day",107.2 meq/L
same,DBIL,"72 h, time 3 day",0 mg/dL
same,GLC,"72 h, time 3 day",187.2 mg/dL
same,IP,"72 h, time 3 day",7.1 mg/dL
same,K,"72 h, time 3 day",4.4 meq/L
same,LDH,"72 h, time 3 day",179.8 IU/L
same,Na,"72 h, time 3 day",141.4 meq/L
same,PL,"72 h, time 3 day",130 mg/dL
same,RALB,"72 h, time 3 day",3 g/dL
same,TBIL,"72 h, time 3 day",0.024 mg/dL
same,TC,"72 h, time 3 day",69.2 mg/dL
same,TG,"72 h, time 3 day",72.2 mg/dL
same,TP,"72 h, time 3 day",5.5 g/dL
same,gamma-GTP,"72 h, time 3 day",1.2 IU/L
same,TERMINAL_BW,"[…], time 7 day",255.3 g
same,TERMINAL_BW,"[…], time 14 day",320.9 g
same,TERMINAL_BW,"[…], time 28 day",401.9 g
same,APTT,"[…], time 7 day",21.7 s
same,Bas,"[…], time 7 day",0%
same,Eos,"[…], time 7 day",0.8%
same,Fbg,"[…], time 7 day",311.8 mg/dL
same,Hb,"[…], time 7 day",13.6 g/dL
same,Ht,"[…], time 7 day",40%
same,Lym,"[…], time 7 day",84.6%
same,MCH,"[…], time 7 day",20.4 pg
same,MCHC,"[…], time 7 day",33.9%
same,MCV,"[…], time 7 day",60.1 fL
same,Mono,"[…], time 7 day",2.2%
same,Neu,"[…], time 7 day",11.4%
same,PT,"[…], time 7 day",16.8 s
same,Plat,"[…], time 7 day",107.9 x10_4/uL
same,RBC,"[…], time 7 day",667.2 x10_4/ul
same,Ret,"[…], time 7 day",5.3%
same,WBC,"[…], time 7 day",77.9 x10_2/uL
same,APTT,"[…], time 14 day",20.2 s
same,Bas,"[…], time 14 day",0%
same,Eos,"[…], time 14 day",1.2%
same,Fbg,"[…], time 14 day",338 mg/dL
same,Hb,"[…], time 14 day",13.8 g/dL
same,Ht,"[…], time 14 day",39.8%
same,Lym,"[…], time 14 day",82%
same,MCH,"[…], time 14 day",20.6 pg
same,MCHC,"[…], time 14 day",34.9%
same,MCV,"[…], time 14 day",59.1 fL
same,Mono,"[…], time 14 day",2.2%
same,Neu,"[…], time 14 day",13.8%
same,PT,"[…], time 14 day",16.3 s
same,Plat,"[…], time 14 day",113.3 x10_4/uL
same,RBC,"[…], time 14 day",673.2 x10_4/ul
same,Ret,"[…], time 14 day",4.7%
same,WBC,"[…], time 14 day",110.5 x10_2/uL
same,APTT,"[…], time 28 day",23.6 s
same,Bas,"[…], time 28 day",0%
same,Eos,"[…], time 28 day",1.2%
same,Fbg,"[…], time 28 day",339 mg/dL
same,Hb,"[…], time 28 day",15.1 g/dL
same,Ht,"[…], time 28 day",43.9%
same,Lym,"[…], time 28 day",86%
same,MCH,"[…], time 28 day",19.6 pg
same,MCHC,"[…], time 28 day",34.5%
same,MCV,"[…], time 28 day",56.8 fL
same,Mono,"[…], time 28 day",2%
same,Neu,"[…], time 28 day",9.4%
same,PT,"[…], time 28 day",16 s
same,Plat,"[…], time 28 day",107.2 x10_4/uL
same,RBC,"[…], time 28 day",772.2 x10_4/ul
same,Ret,"[…], time 28 day",2.7%
same,WBC,"[…], time 28 day",102.2 x10_2/uL
same,KIDNEY_L,"[…], time 7 day",1.1 g
same,KIDNEY_R,"[…], time 7 day",1.1 g
same,KIDNEY_TOTAL,"[…], time 7 day",2.2 g
same,KIDNEY_L,"[…], time 14 day",1.2 g
same,KIDNEY_R,"[…], time 14 day",1.3 g
same,KIDNEY_TOTAL,"[…], time 14 day",2.5 g
same,KIDNEY_L,"[…], time 28 day",1.4 g
same,KIDNEY_R,"[…], time 28 day",1.4 g
same,KIDNEY_TOTAL,"[…], time 28 day",2.9 g
same,LIVER,"[…], time 7 day",11.1 g
same,LIVER,"[…], time 14 day",13.3 g
same,LIVER,"[…], time 28 day",16.2 g
same,A/G,"[…], time 7 day",1.1
same,ALP,"[…], time 7 day",1592.6 IU/L
same,ALT,"[…], time 7 day",36.4 IU/L
same,AST,"[…], time 7 day",64.6 IU/L
same,BUN,"[…], time 7 day",18.4 mg/dL
same,CRE,"[…], time 7 day",0.2 mg/dL
same,Ca,"[…], time 7 day",10.5 mg/dL
same,Cl,"[…], time 7 day",108.2 meq/L
same,DBIL,"[…], time 7 day",0 mg/dL
same,GLC,"[…], time 7 day",194.2 mg/dL
same,IP,"[…], time 7 day",7 mg/dL
same,K,"[…], time 7 day",4.2 meq/L
same,LDH,"[…], time 7 day",129 IU/L
same,Na,"[…], time 7 day",141.2 meq/L
same,PL,"[…], time 7 day",135.8 mg/dL
same,RALB,"[…], time 7 day",2.9 g/dL
same,TBIL,"[…], time 7 day",0 mg/dL
same,TC,"[…], time 7 day",68.6 mg/dL
same,TG,"[…], time 7 day",111.4 mg/dL
same,TP,"[…], time 7 day",5.5 g/dL
same,gamma-GTP,"[…], time 7 day",1.6 IU/L
same,A/G,"[…], time 14 day",1.2
same,ALP,"[…], time 14 day",1442.8 IU/L
same,ALT,"[…], time 14 day",36.8 IU/L
same,AST,"[…], time 14 day",66 IU/L
same,BUN,"[…], time 14 day",20.2 mg/dL
same,CRE,"[…], time 14 day",0.2 mg/dL
same,Ca,"[…], time 14 day",10.7 mg/dL
same,Cl,"[…], time 14 day",107.2 meq/L
same,DBIL,"[…], time 14 day",0 mg/dL
same,GLC,"[…], time 14 day",196.8 mg/dL
same,IP,"[…], time 14 day",6.8 mg/dL
same,K,"[…], time 14 day",4.4 meq/L
same,LDH,"[…], time 14 day",150 IU/L
same,Na,"[…], time 14 day",142.2 meq/L
same,PL,"[…], time 14 day",150.2 mg/dL
same,RALB,"[…], time 14 day",3.1 g/dL
same,TBIL,"[…], time 14 day",0.005 mg/dL
same,TC,"[…], time 14 day",79 mg/dL
same,TG,"[…], time 14 day",102 mg/dL
same,TP,"[…], time 14 day",5.7 g/dL
same,gamma-GTP,"[…], time 14 day",2.2 IU/L
same,A/G,"[…], time 28 day",1.2
same,ALP,"[…], time 28 day",1003.2 IU/L
same,ALT,"[…], time 28 day",37.8 IU/L
same,AST,"[…], time 28 day",59.2 IU/L
same,BUN,"[…], time 28 day",19.2 mg/dL
same,CRE,"[…], time 28 day",0.2 mg/dL
same,Ca,"[…], time 28 day",10.3 mg/dL
same,Cl,"[…], time 28 day",106.4 meq/L
same,DBIL,"[…], time 28 day",0 mg/dL
same,GLC,"[…], time 28 day",194.4 mg/dL
same,IP,"[…], time 28 day",6.9 mg/dL
same,K,"[…], time 28 day",4.1 meq/L
same,LDH,"[…], time 28 day",114 IU/L
same,Na,"[…], time 28 day",141.8 meq/L
same,PL,"[…], time 28 day",152 mg/dL
same,RALB,"[…], time 28 day",3.1 g/dL
same,TBIL,"[…], time 28 day",0.006 mg/dL
same,TC,"[…], time 28 day",78.8 mg/dL
same,TG,"[…], time 28 day",127.4 mg/dL
same,TP,"[…], time 28 day",5.9 g/dL
same,gamma-GTP,"[…], time 28 day",2.2 IU/L
